The source of these data is publication PMC11292626, “5-Fluoroindole Reduces the Bacterial Burden in a Murine Model of Mycobacterium tuberculosis Infection” (ACS Omega, 2024).

One may read the MIC as the lowest concentration that inhibits growth of the organism. For orientation: solubility means how much of the substance goes into solution per volume. By Km is commonly meant the substrate concentration at which the rate is half of its maximum.

For data set [1], the system named is Mycobacterium tuberculosis H37Rv Strain. The data set is described as follows: MIC by resazurin reduction microplate assay (REMA), H37Rv. The data set is classed as cell-based. The conditions noted are these: Mtb H37Rv; for MIC: REMA. In general terms: Resazurin is reduced to fluorescent resorufin, in cell work by metabolically active cells.
Data set [2] can be described thus: Aqueous solubility at different pHs. Format: physicochemical. Conditions: thermodynamic from solid, 25 °C for 4 h. As to the method: The compound was weighed (1 mg) and solubilized in phosphate-buffered saline (PBS, pH 7.4), HCl 0.1 M (pH 1.2), and NH4HCO3 0.1 M (pH 9.2) to a final concentration of 1 mg/mL. The solutions were kept under stirring (250 rpm) for 4h at 37 °C. The solutions were filtered ([…] PDVA filter) and analyzed by HPLC. DMSO solution 1 mg/mL was used as the control for 100% soluble.

A further data set has as its system Mtb H37Rv strain. The data set is described as follows: In vivo model of TB infection in mice. Conditions: for lungs mean log10 CFU/mL ± SD / spleen weight mean g ± SD: gavage, single daily dose, 15 administrations; for toxicity in mice (in words): infected mice, up to 21 days.
A short description of data set [3]: Metabolic stability in rat liver microsomes. Format: in vitro ADME. The conditions noted are these: rat. As to the method: The compound was incubated at 37 °C in the concentration of 20 μM with rat liver microsomal fractions in PBS solution at pH 7.4 solution. As previously described,[31] rat liver microsomal fractions were seeded by centrifugation at 9.000 × g. To the supernatant containing the postmithocondrial with cytosolic and membrane-bound enzymes, 4 μM 5-FI was added and incubated at 37 °C. The interaction between the compound in the incubation mixture and the enzyme containing NADPH at 1 mg/mL concentration was measured by HPLC-MS/MS technique to determine the in vitro compound consumption by the microsomal fractions at 0, 5, 15, and 30 min reaction (incubation) time. The intrinsic compound clearance was taken as the half-life, and the disappearance was compared with the positive control, verapamil(2 μM).

Data set [4] in a line: Chemical stability in H2O at 37 °C, open and closed system (volatility assay).
Data set [5] can be described thus: In vivo absorption assay: plasma concentration after gavage. The conditions noted are these: mice, gavage 400 mg/kg.
Data set [6] can be described thus: Chemical stability at pH 1.2, 7.4 and 9.1. Format: physicochemical. The conditions noted are these: 37 °C for 24 h. As to the method:
The compounds to be tested were prepared in a 100 μM solution and incubated at 37 °C for 24 h in three solutions representing the physiologically relevant pHs to drug administration: pH 1.2 (stomach), pH 7.4 (plasma), and pH 9.2 (intestinal tissue). The compounds were quantified by HPLC-MS/MS. The chemical stability experiments were carried out in triplicates to ensure reproducibility. The results were presented as percentage, comparing the signal at time zero of the assay, considering this measure 100%, with measurements after the incubation time. Alprenolol was used as the analytical control (data not shown). The results were presented as the percentage, comparing the signal at time zero of the assay (100%) with the signal produced by concentrations after the incubation period.

The subject of data set [7] is tryptophan transport system of Mtb H37Rv strain. The conditions noted are these: tryptophan transport system of Mtb H37Rv strain ref 27; read-out: Michaelis–Menten constant (KM); cited from earlier work.
The mark [8] stands for this setting: Mycobacterium tuberculosis, H37RV, most frequent value of three independent assays.
The mark [9] stands for this setting: most frequent value of three independent assays.

Where two headings read alike, the source gives them in different places. Marks after values point to notes of the source that are not given here.

With `N[C@@H](Cc1c[nH]c2ccc(F)cc12)C(=O)O` [5-fluorotryptophan, reference compound], the MIC in data set [1] (Mycobacterium tuberculosis, H37RV) is above 20 µg/mL; in data set [1] (setting [8]), above 90 µM.

With `Clc1ccc2[nH]ccc2c1` [Compound 2, 5-chloroindole], the values for the MIC in data set [1] (setting [9]) and in data set [1] (setting [8]) were above 263.9 µM and above 264 µM, respectively.

With `Brc1ccc2[nH]ccc2c1` [Compound 3, 5-bromoindole], the MIC was above 204.0 µM in data set [1] (setting [9]) and above 204 µM in data set [1] (setting [8]).

The compound `N#Cc1ccc2[nH]ccc2c1` [Compound 4] displayed an MIC in data set [1] (setting [8]) above 281 µM.

Take `O=[N+]([O-])c1ccc2[nH]ccc2c1` [Compound 5]: in data set [1] (setting [8]), the MIC was above 247 µM.

In the case of `Oc1ccc2[nH]ccc2c1` [Compound 6], the MIC in data set [1] (setting [8]) was above 300 µM.

`COc1ccc2[nH]ccc2c1` [Compound 7]: in data set [1] (setting [8]), the MIC is above 272 µM.

As for `Fc1cccc2[nH]ccc12` [Compound 8], the “reduction of activity compared to 5-FI (MIC ratio)” value (shortened to “reduction of activity … (MIC ratio)”) in data set [1] was “approximately 4 fold”. This compound also had an MIC in data set [1] (setting [8]) of 18.5 µM.

Consider `Fc1ccc2cc[nH]c2c1` [Compound 9], for which, in data set [1], the “reduction of activity … (MIC ratio)” value is given as “more than 15 fold”. The compound further came in with an MIC in data set [1] (setting [8]) of 74 µM.

As for `Fc1cccc2cc[nH]c12` [Compound 10], the “reduction of activity … (MIC ratio)” value in data set [1] is given as above 31 fold. The compound also registered an MIC in data set [1] (setting [8]) of 148 µM.

Regarding `Cl.Fc1ccc2[nH]ccc2c1` [Compound 11, 5-fluoroindole hydrochloride], the solubility at 4 h in data set [2] (pH 1.2, simulated gastric fluid, 0.1 M HCl, read-out: aqueous solubility pH 1.2) was 2.3 µM; in data set [2] (pH 9.1, aqueous buffer, 0.1 M NH4HCO3, read-out: aqueous solubility pH 9.1), 1110 µM; in data set [2] (phosphate-buffered saline, pH 7.4, aqueous buffer, PBS, read-out: aqueous solubility pH 7.4), 600 µM. In data set [1] (setting [9]), this compound displayed an MIC of 29.1 µM. Also, the “lungs mean log10 CFU/mL ± SD” value in the data set with Mtb H37Rv strain (10 μmol/kg) is reported as 5.80 ± 0.20 log10 CFU/mL; in the data set with Mtb H37Rv strain (30 μmol/kg), 6.21 ± 0.32 log10 CFU/mL; in the data set on Mtb H37Rv strain (100 μmol/kg), 5.86 ± 0.67 log10 CFU/mL; in the data set on Mtb H37Rv strain (200 μmol/kg), 3.68 ± 0.45***^, ### log10 CFU/mL. Further, the “spleen weight mean g ± SD” value in the data set with Mtb H37Rv strain (10 μmol/kg) was 0.58 ± 0.19 g; in the data set with Mtb H37Rv strain (30 μmol/kg), 0.55 ± 0.23 g; with Mtb H37Rv strain (100 μmol/kg) it was 0.62 ± 0.35 g; in the data set on Mtb H37Rv strain (200 μmol/kg) it was 0.28 ± 0.06 g. Besides, the “number of CFUs in the lungs compared to the EC (early control) group (in words)” value in the data set on Mtb H37Rv strain (200 μmol/kg) is “significantly reduced”. The “reduction of mycobacterial load in the lungs compared to vehicle group (in words)” value with Mtb H37Rv strain (200 μmol/kg) was “significantly reduce”. Further, the “reduction of CFUs in the lungs compared to vehicle group (in words)” value in the data set on Mtb H37Rv strain (10, 30 and 100 μmol/kg) is listed as “not able to reduce”. Further, the “toxicity in mice (in words)” value in the data set on Mtb H37Rv strain (200 μmol/kg, listed as 5-FI.HCL) is listed as “no evidence of a toxic effect”; with Mtb H37Rv strain (200 μmol/kg, listed as 5-FI.HCl), “no toxicity”. In data set [3] (pH 7.4, read-out: metabolic stability Clint (intrinsic clearance)), the CLint scaled worked out at 48 mL/min/kg. Besides, the half-life in data set [3] (pH 7.4, read-out: metabolic stability t1/2 (half-life)) is 12 min. For the same compound, the “chemical stability, closed system” value is 100 ± 0.0% in data set [4] (0 h); 95.3 ± 0.1% in data set [4] (1 h); 95.0 ± 0.2% in data set [4] (2 h); 104.6 ± 0.2% in data set [4] (4 h); 97.9 ± 0.1% in data set [4] (6 h); 110.8 ± 0.2% in data set [4] (24 h). For the same compound, in data set [4] (48 h), the “chemical stability, closed system” value worked out at 124.1 ± 0.1%. Moreover, the “chemical stability, open system” value in data set [4] (0 h) is listed as 100 ± 0.0%; in data set [4] (1 h), 97.6 ± 0.0%; in data set [4] (2 h), 98.0 ± 0.1%; in data set [4] (4 h) it was 100.3 ± 0.5%; in data set [4] (6 h), 103.9 ± 0.1%; in data set [4] (24 h) it was 113.5 ± 0.1%. The “chemical stability, open system” value in data set [4] (48 h) is given as 114.3 ± 0.0%. The “plasma concentration, mean ± SD” value came out at 32.6 ± 14.7 µM in data set [5] (15 min) and 82.3 ± 35.05 µM in data set [5] (30 min). Moreover, in data set [5] (joint range over 5-FI and 5-FI.HCl, 15 and 30 min, 400 mg/kg), the “plasma concentrations (range)” value was 32.6 to 82.3 µM. In addition, the “chemical stability pH 1.2” value in data set [6] (0.1 M HCl) stood at 100%. For the same compound, the “chemical stability pH 9.1” value in data set [6] (0.1 M NH4HCO3) is given as 90.5%. The “chemical stability pH 7.4” value in data set [6] (PBS) is 80.3%. The “chemical stability at all pH values tested” value in data set [6] (pH 1.2, 7.4, 9.1) is on record as above 80%.

Consider `NNC(=O)c1ccncc1` [INH, isoniazid, reference compound], for which, in data set [1] (setting [8]), the minimum inhibitory concentration (MIC) was 2.3 µM. Moreover, in the data set on Mtb H37Rv strain (150 μmol/kg), the “lungs mean log10 CFU/mL ± SD” value is reported as 2.43 ± 0.40***^, ### log10 CFU/mL and the “spleen weight mean g ± SD” value is on record as 0.23 ± 0.04 g.

In data set [1] (setting [8]), `CO[C@H]1/C=C/O[C@@]2(C)Oc3c(C)c(O)c4c(O)c(c(/C=N/N5CCN(C)CC5)c(O)c4c3C2=O)NC(=O)/C(C)=C\C=C\[C@H](C)[C@H](O)[C@@H](C)[C@@H](O)[C@@H](C)[C@H](OC(C)=O)[C@@H]1C` [RIF, rifampin, reference compound] returned an MIC of 0.09 µM. This lies in the double-digit nanomolar range.

Consider `N[C@@H](Cc1c[nH]c2ccccc12)C(=O)O` [tryptophan, L-tryptophan], for which the Km in data set [7] was 1250 µM.
